Measurements from ChEMBL document CHEMBL2202954, “The effect of PLC-γ2 inhibitors on the growth of human tumour cells” (2012).

Columns and labels:
Assay type in all cases: functional
MOLT-4 = test: Cytotoxicity against human MOLT4 cells assessed as cellular growth at 10 uM by SRB assay
ACHN = test: Cytotoxicity against human ACHN cells assessed as cellular growth at 10 uM by SRB assay
OVCAR-3 = test: Cytotoxicity against human OVCAR3 cells assessed as cellular growth at 10 uM by SRB assay
HT-29 = test: Cytotoxicity against human HT-29 cells assessed as cellular growth at 10 uM by SRB assay
BT-549 = test: Cytotoxicity against human BT549 cells assessed as cellular growth at 10 uM by SRB assay
CCRF-CEM = test: Cytotoxicity against human CCRF-CEM cells assessed as cellular growth at 10 uM by SRB assay
M14 = test: Cytotoxicity against human M14 cells assessed as cellular growth at 10 uM by SRB assay
MDA-MB-468 = test: Cytotoxicity against human MDA-MB-468 cells assessed as cellular growth at 10 uM by SRB assay
MDA-MB-435 = test: Cytotoxicity against human MDA-MB-435 cells assessed as cellular growth at 10 uM by SRB assay
OVCAR-8 = test: Cytotoxicity against human OVCAR8 cells assessed as cellular growth at 10 uM by SRB assay
[1] = Cytotoxicity against human NCI-ADR-RES cells assessed as cellular growth at 10 uM by SRB assay
RXF 393 = test: Cytotoxicity against human RXF393 cells assessed as cellular growth at 10 uM by SRB assay
UACC-62 = test: Cytotoxicity against human UACC62 cells assessed as cellular growth at 10 uM by SRB assay
SW-620 = test: Cytotoxicity against human SW620 cells assessed as cellular growth at 10 uM by SRB assay
HL-60(TB) = test: Cytotoxicity against human HL-60(TB) cells assessed as cellular growth at 10 uM by SRB assay
K562 = test: Cytotoxicity against human K562 cells assessed as cellular growth at 10 uM by SRB assay
TK-10 = test: Cytotoxicity against human TK10 cells assessed as cellular growth at 10 uM by SRB assay
HCC 2998 = test: Cytotoxicity against human HCC2998 cells assessed as cellular growth at 10 uM by SRB assay
A549 = test: Cytotoxicity against human A549 cells assessed as cellular growth at 10 uM by SRB assay
PC-3 = test: Cytotoxicity against human PC3 cells assessed as cellular growth at 10 uM by SRB assay

Compound	Activity (MOLT-4) [%]	Activity (ACHN) [%]	Activity (OVCAR-3) [%]	Activity (HT-29) [%]	Activity (BT-549) [%]	Activity (CCRF-CEM) [%]	Activity (M14) [%]	Activity (MDA-MB-468) [%]	Activity (MDA-MB-435) [%]	Activity (OVCAR-8) [%]	Activity [1] [%]	Activity (RXF 393) [%]	Activity (UACC-62) [%]	Activity (SW-620) [%]	Activity (HL-60(TB)) [%]	Activity (K562) [%]	Activity (TK-10) [%]	Activity (HCC 2998) [%]	Activity (A549) [%]	Activity (PC-3) [%]
Clc1ccccc1Nc1nnc(-c2ccncc2)s1	93.42	104.09	109.8	105.3	90.37	95.96	103.83	110.42	93.62	100.07	101.59	107.3	95.3	91.55	79.12	101.4	110.92	106.44	94.98	97.24
O=c1/c(=C/c2ccc(Cl)cc2Cl)sc2nc(-c3ccccc3)nn12	88.5	107.07	116	115.55	122.09	95.93	103.59	112.09	106.5	110.37	112.24	121.72	89.1	107.15	91.7	98.67	106	117.6	107.72	106.44
COc1cc(/C=c2/sc3nc4ccccc4n3c2=O)cc(I)c1O	78.31	107.3	97.63	104.58	102.32	83.8	107.28	71.12	97.54	97.39	92.89	116.35	79.91	93.08	81.81	51.46	116.5	106.16	88.66	95.27
Cc1ccc(C(=O)/C=C2/Nc3ccc(C)cc3OC2=O)cc1	83.44	104.27	116.56	106.8	108.86	77.12	106.88	112.98	106.99	102.51	108.28	112.41	96.95	120.18	82.69	95.07	135.06	102.74	105.68	101.93
Cc1ccc2c(c1)N/C(=C/C(=O)c1ccc(Cl)cc1)C(=O)O2	86.91	103.68	119.21	105.84	109.64	65.56	108.88	107.35	105.53	101.66	104	111.43	93.82	114.93	97.02	99.7	131.96	108.44	92.75	87.2
Cc1ccc(C2=N/C(=C\c3ccccc3)C(=O)O2)cc1	91.17	104.91	105.55	107.8	103.91	94.95	108.05	99.59	102.12	102.69	107.34	130.71	101.68	102.61	95.82	106.22	112.19	99.84	107.01	104.18
N#Cc1ccc(-n2nnc3ccccc32)cc1C#N	93.32	102.68	101.15	108.03	106.48	93.15	106.26	99.52	85.25	99.01	100.66	100.39	94.5	94.36	107.7	92.97	133.56	103.78	87.19	100.51
Cc1ccc(S(=O)(=O)Oc2ccc(-c3cnc4ccccc4n3)cc2)cc1	89.3	102.63	115.17	89.62	107.31	96.08	123.34	107.13	96.62	96.94	101.39	103.74	94.5	103.63	109.83	84.2	98.17	102.2	95.53	90.9
O=C(Nc1ccc2oc(=O)ccc2c1)c1ccc(-c2ccc(Cl)c(Cl)c2)o1	73.02	78.44	102.55	92.94	77.96	57.99	100.99	97.57	88.86	94.2	78.15	98.99	75.33	100.55	85.04	65.27	90.37	100.84	50.07	73.29
Cc1ccc(S(=O)(=O)NC2=NC(=O)/C(=C\c3ccccc3)S2)cc1	86.66	103.63	116.48	109.22	113.45	92.01	110.84	110.23	110.94	102.48	108.06	118.7	96.39	109.53	92.36	94.57	104.1	106.96	103.33	111.74
O=C(Nc1ccc(S(=O)(=O)Nc2nccs2)cc1)c1cccs1	95.09	116.25	116.67	101.43	114.16	89.52	110.69	102.57	110.15	106.2	120.26	110.47	104.61	111.55	85.93	104.24	104.94	108.36	96.04	113.66
